# “And” between values parts separate entries of the source, which are not always exact repeats. Identical values can stand only once. Like-named read-outs stand apart in the source and are kept apart here.
# Columns and labels:
# [1] = tested on: Jak2/Stat5a signaling pathway; assay: Prolactin-stimulated Jak2/Stat5a signaling in rat Nb2 cells (phosphotyrosine Western blot); assay type: cell-based; conditions: increasing concentration, PRL stimulated
# Description: Solubilization of membrane proteins, immunoprecipitation, and Western blot analysis. Frozen cell pellets were thawed on ice and solubilized in 1% TX-100 lysis buffer (10^8 cells/ml) and clarified by centrifugation, as previously described.^16 For human T-cells, supernates were incubated rotating end over end for 2 hours at 4° C. with either 5 μl/ml polyclonal rabbit antisera raised against peptides derived from the unique COOH-termini of Jak3 (amino acid [a.a.] 1104-1124), carboxyl termini of human Stat5a (a.a. 775-794) or Stat5b (a.a. 777-787).^26 Ab and immunoprecipitated proteins were captured by incubation for 30 minutes with Protein A-Sepharose beads (Pharmacia, Piscataway, N.J.), sedimented for purification, and eluted by boiling in 2×SDS-sample buffer (20% Glycerol, 10% 2-Mercaptoethanol, 4.6% SDS, 0.004% Bromophenol blue in 0.125 M Tris pH 6.8) for 4 minutes. For phosphoMapk assays, approximately 25 μg of total cell lysate was dissociated in SDS-sample buffer and separated on 10% (all others on 7.5%) SDS-PAGE under reducing conditions. […]
# In FIG. 9A, it can be seen that NC1153 inhibits Jak3 driven transcription factor-Stat5a/b in PHA activated T-cells treated with increasing concentrations of NC1153 in a dose dependent manner as measured via EMSA analysis (upper panel). […]
# LEW kidney allografts = assay: Rat kidney allograft survival (LEW donors to ACI recipients); assay type: in vivo
# Source text: Rat Kidney Transplants. Adult male ACI (RT1^a) and Lewis (LEW; RT1^1) rats (160-200 g) obtained from Harlan Sprague-Dawley (Indianapolis, Ind.) were cared for according to the guidelines of the Animal Welfare Committee. Rats were housed in light- and temperature-controlled quarters and given chow and water ad libitum. Kidneys were transplanted heterotopically from LEW donors to ACI recipients using a standard microsurgical technique of Ono and Lindsey^28. […] A control group of recipients remained untreated. […] Graft survival time was defined as animal survival of life supporting kidney transplant.
# To test the in vivo effects, recipients of kidney allografts were treated with 649641P (NC1153) for 7 days beginning immediately after transplantation. […] A mean survival time (MST) and SD was calculated for each group from 5-6 experiments.
# A MST and SD were calculated for each group from 5-6 experiments. The combination index (CI) values were calculated.
# human Jurkat T-cells = assay: Growth / DNA synthesis of non-Jak3 expressing Jurkat cells; assay type: cell-based
compound,measurement,setting,value
CN(C)CC1CCCCCCCCCC(CN(C)C)C1=O (mixture of isomers) [649641P (NC1153)],Jak2/Stat5a activation by prolactin,[1],fails to inhibit
same,MST ± SD,LEW kidney allografts; 649641P (NC1153) 2.5 mg/kg/d i.v. × 7 days alone,9.5 ± 1.4 days and 9.5 ± 1.5 days
same,MST ± SD,LEW kidney allografts; 649641P (NC1153) 5.0 mg/kg/d i.v. × 7 days alone,12.2 ± 1.5 days
same,MST ± SD,LEW kidney allografts; 649641P (NC1153) 10.0 mg/kg/d i.v. × 7 days alone,18.8 ± 1.1 days
same,MST ± SD,LEW kidney allografts; 649641P (NC1153) 20.0 mg/kg/d i.v. × 7 days alone,24.8 ± 6.6 days and 24.8 ± 4.6 days
same,MST ± SD,LEW kidney allografts; 649641P (NC1153) 40.0 mg/kg/d p.o. × 7 days alone,12.3 ± 1.26 days
same,MST ± SD,LEW kidney allografts; 649641P (NC1153) 80.0 mg/kg/d p.o. × 7 days alone,18.6 ± 5.32 days
same,MST ± SD,LEW kidney allografts; 649641P (NC1153) 160.0 mg/kg/d p.o. × 7 days alone,31.0 ± 3.9 days
same,MST,LEW kidney allografts; 649641P (NC1153) 240 mg/kg/day p.o. for 7 days,47.8 ± 19.59 days
same,rat kidney allograft survival,"LEW kidney allografts; given alone, i.v. or oral gavage, 7 days",prolonged rat kidney allograft survival in a dose-dependent fashion
same,cell growth / DNA synthesis of Jurkat cells,human Jurkat T-cells,did not inhibit DNA synthesis
same,cell growth / DNA synthesis of Jurkat cells,human Jurkat T-cells; listed as NC1153,does not block cell growth

# Source: patent publication US7365096B2, “Methods for selectively inhibiting Janus tyrosine kinase 3 (Jak3)” (Board of Regents, The University of Texas System, priority 2002, dated 2008)
